From PubChem BioAssay (NCI)
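Exposure lasted 48 hours, with cells grown in 96-well plates and compounds tested at five concentrations. TGI: total growth inhibition.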

Tests used:
Test in all cases: NCI tumour cell line growth inhibition, 48 h
[1] = test system: 786-0 renal
[2] = test system: A498 renal
[3] = test system: A549 NSCLC
[4] = test system: ACHN renal
[5] = test system: BT-549 breast
[6] = test system: CAKI-1 renal
[7] = test system: CCRF-CEM leukemia
[8] = test system: COLO 205 colon
[9] = test system: DU-145 prostate
[10] = test system: EKVX NSCLC
[11] = test system: HCC-2998 colon
[12] = test system: HCT-116 colon
[13] = test system: HCT-15 colon
[14] = test system: HL-60(TB) leukemia
[15] = test system: HOP-62 NSCLC
[16] = test system: HOP-92 NSCLC
[17] = test system: HS 578T breast
[18] = test system: HT29 colon
[19] = test system: IGROV1 ovarian
[20] = test system: K-562 leukemia
[21] = test system: KM12 colon
[22] = test system: LOX IMVI melanoma
[23] = test system: M14 melanoma
[24] = test system: MALME-3M melanoma
[25] = test system: MCF7 breast
[26] = test system: MDA-MB-231 breast
[27] = test system: MDA-MB-435
[28] = test system: MDA-N
[29] = test system: MOLT-4 leukemia
[30] = test system: NCI-H226 lung
[31] = test system: NCI-H23 lung
[32] = test system: NCI-H460 lung
[33] = test system: NCI-H522 lung
[34] = test system: OVCAR-3 ovarian
[35] = test system: OVCAR-4 ovarian
[36] = test system: OVCAR-5 ovarian
[37] = test system: OVCAR-8 ovarian
[38] = test system: PC-3 prostate
[39] = test system: RPMI-8226 leukemia
[40] = test system: RXF 393 renal
[41] = test system: SF-268 CNS
[42] = test system: SF-295 CNS
[43] = test system: SF-539 CNS
[44] = test system: SK-MEL-2 melanoma
[45] = test system: SK-MEL-28 melanoma
[46] = test system: SK-MEL-5 melanoma
[47] = test system: SK-OV-3 ovarian
[48] = test system: SN12C renal
[49] = test system: SNB-19 CNS
[50] = test system: SR leukemia
[51] = test system: SW-620 colon
[52] = test system: T-47D breast
[53] = test system: TK-10 renal
[54] = test system: U251 CNS
[55] = test system: UACC-257 melanoma
[56] = test system: UO-31 renal
[57] = test system: NCI/ADR-RES ovarian
[58] = test system: SNB-75 CNS
[59] = test system: UACC-62 melanoma

**Q.** How did the TGI [1] turn out when `CC(C)=CCN1CC(C)C(=O)Nc2ccccc21` (centres undefined) was run?
**A.** > 100 µM

**Q.** And the TGI [2]?
**A.** > 100 µM

**Q.** What about the TGI [3] of the same molecule?
**A.** > 100 µM

**Q.** And the TGI [4]?
**A.** > 100 µM

**Q.** What about the TGI [5] of the same molecule?
**A.** > 100 µM

**Q.** And the TGI [6]?
**A.** > 100 µM

**Q.** And the TGI [7]?
**A.** > 100 µM

**Q.** What about the TGI [8] of the same molecule?
**A.** > 100 µM

**Q.** What about the TGI [9] of the same molecule?
**A.** > 100 µM

**Q.** And the TGI [10]?
**A.** > 100 µM

**Q.** And the TGI [11]?
**A.** > 100 µM

**Q.** And the TGI [12]?
**A.** > 100 µM

**Q.** And the TGI [13]?
**A.** > 100 µM

**Q.** And the TGI [14]?
**A.** > 100 µM

**Q.** And the TGI [15]?
**A.** > 100 µM

**Q.** And the TGI [16]?
**A.** > 100 µM

**Q.** And the TGI [17]?
**A.** > 100 µM

**Q.** And the TGI [18]?
**A.** > 100 µM

**Q.** And the TGI [19]?
**A.** > 100 µM

**Q.** What about the TGI [20] of the same molecule?
**A.** > 100 µM

**Q.** And the TGI [21]?
**A.** > 100 µM

**Q.** And the TGI [22]?
**A.** > 100 µM

**Q.** What about the TGI [23] of the same molecule?
**A.** > 100 µM

**Q.** What about the TGI [24] of the same molecule?
**A.** > 100 µM

**Q.** And the TGI [25]?
**A.** > 100 µM

**Q.** And the TGI [26]?
**A.** > 100 µM

**Q.** And the TGI [27]?
**A.** > 100 µM

**Q.** What about the TGI [28] of the same molecule?
**A.** > 100 µM

**Q.** And the TGI [29]?
**A.** > 100 µM

**Q.** What about the TGI [30] of the same molecule?
**A.** > 100 µM

**Q.** What about the TGI [31] of the same molecule?
**A.** > 100 µM

**Q.** And the TGI [32]?
**A.** > 100 µM

**Q.** And the TGI [33]?
**A.** > 100 µM

**Q.** And the TGI [34]?
**A.** > 100 µM

**Q.** What about the TGI [35] of the same molecule?
**A.** > 100 µM

**Q.** What about the TGI [36] of the same molecule?
**A.** > 100 µM

**Q.** What about the TGI [37] of the same molecule?
**A.** > 100 µM

**Q.** What about the TGI [38] of the same molecule?
**A.** > 100 µM

**Q.** And the TGI [39]?
**A.** > 100 µM

**Q.** And the TGI [40]?
**A.** > 100 µM

**Q.** What about the TGI [41] of the same molecule?
**A.** > 100 µM

**Q.** What about the TGI [42] of the same molecule?
**A.** > 100 µM

**Q.** What about the TGI [43] of the same molecule?
**A.** > 100 µM

**Q.** What about the TGI [44] of the same molecule?
**A.** > 100 µM

**Q.** What about the TGI [45] of the same molecule?
**A.** > 100 µM

**Q.** What about the TGI [46] of the same molecule?
**A.** > 100 µM

**Q.** What about the TGI [47] of the same molecule?
**A.** > 100 µM

**Q.** What about the TGI [48] of the same molecule?
**A.** > 100 µM

**Q.** And the TGI [49]?
**A.** > 100 µM

**Q.** And the TGI [50]?
**A.** > 100 µM

**Q.** And the TGI [51]?
**A.** > 100 µM

**Q.** And the TGI [52]?
**A.** > 100 µM

**Q.** And the TGI [53]?
**A.** > 100 µM

**Q.** What about the TGI [54] of the same molecule?
**A.** > 100 µM

**Q.** What about the TGI [55] of the same molecule?
**A.** > 100 µM

**Q.** And the TGI [56]?
**A.** > 100 µM

**Q.** What does the source list for `CCOC(=O)C(C(=O)OCC)=C1NC2(c3ccccc3Nc3ccccc32)C(C#N)S1` (centres undefined)?
**A.** TGI [1]: 23.8 µM; TGI [2]: 29.2 µM; TGI [3]: 20.9 µM; TGI [4]: 52.8 µM; TGI [5]: 27.5 µM; TGI [6]: 53.7 µM; TGI [7]: > 100 µM; TGI [8]: 19.4 µM; TGI [9]: 28.4 µM; TGI [10]: 47.2 µM; TGI [11]: 17.1 µM; TGI [12]: 27.6 µM; TGI [13]: 19.6 µM; TGI [14]: 55.5 µM; TGI [15]: 27 µM; TGI [16]: 15.6 µM; TGI [17]: 46.3 µM; TGI [18]: 17.8 µM; TGI [19]: 25.6 µM; TGI [20]: 28.4 µM; TGI [21]: 19.2 µM; TGI [22]: 26.5 µM; TGI [23]: 19.8 µM; TGI [24]: 29 µM; TGI [25]: 13.3 µM; TGI [27]: 20.6 µM; TGI [28]: 36.3 µM; TGI [29]: 10.1 µM; TGI [30]: 26.2 µM; TGI [31]: 16 µM; TGI [32]: 15.2 µM; TGI [33]: 29.2 µM; TGI [57]: 28.8 µM; TGI [34]: 4.78 µM; TGI [35]: 18.5 µM; TGI [36]: 36.1 µM; TGI [37]: 30 µM; TGI [38]: 16.8 µM; TGI [39]: 7.07 µM; TGI [40]: 33 µM; TGI [41]: 39 µM; TGI [42]: 40 µM; TGI [43]: 23 µM; TGI [44]: 25.5 µM; TGI [45]: 50.7 µM; TGI [46]: 21.6 µM; TGI [47]: 53.8 µM; TGI [48]: 18.9 µM; TGI [49]: 35.1 µM; TGI [58]: 53.2 µM; TGI [50]: 6.81 µM; TGI [51]: 51.6 µM; TGI [52]: 25.5 µM; TGI [53]: 38.6 µM; TGI [54]: 24.5 µM; TGI [55]: 36 µM; TGI [59]: 22 µM; TGI [56]: 25.3 µM

**Q.** Which TGI [1] does the source give for `c1ccc(CCc2cccnc2)nc1` here?
**A.** > 100 µM

**Q.** And the TGI [2]?
**A.** > 100 µM

**Q.** And the TGI [3]?
**A.** > 100 µM

**Q.** And the TGI [4]?
**A.** > 100 µM

**Q.** What about the TGI [5] of the same molecule?
**A.** > 100 µM

**Q.** What about the TGI [6] of the same molecule?
**A.** > 100 µM

**Q.** And the TGI [8]?
**A.** > 100 µM

**Q.** What about the TGI [10] of the same molecule?
**A.** > 100 µM

**Q.** What about the TGI [12] of the same molecule?
**A.** > 100 µM

**Q.** What about the TGI [13] of the same molecule?
**A.** > 100 µM

**Q.** What about the TGI [15] of the same molecule?
**A.** > 100 µM

**Q.** What about the TGI [16] of the same molecule?
**A.** > 100 µM

**Q.** What about the TGI [17] of the same molecule?
**A.** > 100 µM

**Q.** What about the TGI [18] of the same molecule?
**A.** > 100 µM

**Q.** And the TGI [19]?
**A.** > 100 µM

**Q.** And the TGI [20]?
**A.** > 100 µM

**Q.** What about the TGI [21] of the same molecule?
**A.** > 100 µM

**Q.** What about the TGI [22] of the same molecule?
**A.** > 100 µM

**Q.** And the TGI [23]?
**A.** > 100 µM

**Q.** What about the TGI [24] of the same molecule?
**A.** > 100 µM

**Q.** And the TGI [25]?
**A.** > 100 µM

**Q.** What about the TGI [26] of the same molecule?
**A.** > 100 µM

**Q.** What about the TGI [27] of the same molecule?
**A.** > 100 µM

**Q.** And the TGI [28]?
**A.** > 100 µM

**Q.** And the TGI [29]?
**A.** > 100 µM

**Q.** What about the TGI [30] of the same molecule?
**A.** > 100 µM

**Q.** And the TGI [31]?
**A.** > 100 µM

**Q.** And the TGI [32]?
**A.** > 100 µM

**Q.** And the TGI [33]?
**A.** > 100 µM

**Q.** And the TGI [57]?
**A.** > 100 µM

**Q.** What about the TGI [34] of the same molecule?
**A.** > 100 µM

**Q.** And the TGI [35]?
**A.** > 100 µM

**Q.** What about the TGI [36] of the same molecule?
**A.** > 100 µM

**Q.** What about the TGI [37] of the same molecule?
**A.** > 100 µM

**Q.** And the TGI [38]?
**A.** > 100 µM

**Q.** And the TGI [39]?
**A.** > 100 µM

**Q.** And the TGI [40]?
**A.** > 100 µM

**Q.** And the TGI [41]?
**A.** > 100 µM

**Q.** And the TGI [42]?
**A.** > 100 µM

**Q.** And the TGI [43]?
**A.** > 100 µM

**Q.** And the TGI [44]?
**A.** > 100 µM

**Q.** And the TGI [45]?
**A.** > 100 µM

**Q.** And the TGI [46]?
**A.** > 100 µM

**Q.** And the TGI [47]?
**A.** > 100 µM

**Q.** And the TGI [48]?
**A.** > 100 µM

**Q.** And the TGI [49]?
**A.** > 100 µM

**Q.** What about the TGI [58] of the same molecule?
**A.** > 100 µM

**Q.** And the TGI [50]?
**A.** > 100 µM

**Q.** And the TGI [51]?
**A.** > 100 µM

**Q.** What about the TGI [52] of the same molecule?
**A.** > 100 µM

**Q.** And the TGI [53]?
**A.** > 100 µM

**Q.** What about the TGI [54] of the same molecule?
**A.** > 100 µM

**Q.** And the TGI [55]?
**A.** > 100 µM

**Q.** And the TGI [59]?
**A.** > 100 µM

**Q.** And the TGI [56]?
**A.** > 100 µM
